Key:
Experiment in all cases: KAM-matrix competition in K562 lysate;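 on 0.001 uM KAM: median log10 fold change of treatment over DMSO control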;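 on 0.01 uM KAM: median log10 fold change of treatment over DMSO control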;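 on 0.1 uM KAM: median log10 fold change of treatment over DMSO control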;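 on 1 uM KAM: median log10 fold change of treatment over DMSO control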;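 on 10 uM KAM: median log10 fold change of treatment over DMSO control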
Type in all cases: binding
ATR = biological target: T1, ATR (Homo sapiens, UniProt Q13535);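 on 0.001 uM KAM: median log10 fold change of treatment over DMSO control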;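 on 0.01 uM KAM: median log10 fold change of treatment over DMSO control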;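 on 0.1 uM KAM: median log10 fold change of treatment over DMSO control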;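 on 1 uM KAM: median log10 fold change of treatment over DMSO control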;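 on 10 uM KAM: median log10 fold change of treatment over DMSO control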
T1 construct: endogenous in cells; host or cells: K562
T1 sequence (Q13535 whole entry): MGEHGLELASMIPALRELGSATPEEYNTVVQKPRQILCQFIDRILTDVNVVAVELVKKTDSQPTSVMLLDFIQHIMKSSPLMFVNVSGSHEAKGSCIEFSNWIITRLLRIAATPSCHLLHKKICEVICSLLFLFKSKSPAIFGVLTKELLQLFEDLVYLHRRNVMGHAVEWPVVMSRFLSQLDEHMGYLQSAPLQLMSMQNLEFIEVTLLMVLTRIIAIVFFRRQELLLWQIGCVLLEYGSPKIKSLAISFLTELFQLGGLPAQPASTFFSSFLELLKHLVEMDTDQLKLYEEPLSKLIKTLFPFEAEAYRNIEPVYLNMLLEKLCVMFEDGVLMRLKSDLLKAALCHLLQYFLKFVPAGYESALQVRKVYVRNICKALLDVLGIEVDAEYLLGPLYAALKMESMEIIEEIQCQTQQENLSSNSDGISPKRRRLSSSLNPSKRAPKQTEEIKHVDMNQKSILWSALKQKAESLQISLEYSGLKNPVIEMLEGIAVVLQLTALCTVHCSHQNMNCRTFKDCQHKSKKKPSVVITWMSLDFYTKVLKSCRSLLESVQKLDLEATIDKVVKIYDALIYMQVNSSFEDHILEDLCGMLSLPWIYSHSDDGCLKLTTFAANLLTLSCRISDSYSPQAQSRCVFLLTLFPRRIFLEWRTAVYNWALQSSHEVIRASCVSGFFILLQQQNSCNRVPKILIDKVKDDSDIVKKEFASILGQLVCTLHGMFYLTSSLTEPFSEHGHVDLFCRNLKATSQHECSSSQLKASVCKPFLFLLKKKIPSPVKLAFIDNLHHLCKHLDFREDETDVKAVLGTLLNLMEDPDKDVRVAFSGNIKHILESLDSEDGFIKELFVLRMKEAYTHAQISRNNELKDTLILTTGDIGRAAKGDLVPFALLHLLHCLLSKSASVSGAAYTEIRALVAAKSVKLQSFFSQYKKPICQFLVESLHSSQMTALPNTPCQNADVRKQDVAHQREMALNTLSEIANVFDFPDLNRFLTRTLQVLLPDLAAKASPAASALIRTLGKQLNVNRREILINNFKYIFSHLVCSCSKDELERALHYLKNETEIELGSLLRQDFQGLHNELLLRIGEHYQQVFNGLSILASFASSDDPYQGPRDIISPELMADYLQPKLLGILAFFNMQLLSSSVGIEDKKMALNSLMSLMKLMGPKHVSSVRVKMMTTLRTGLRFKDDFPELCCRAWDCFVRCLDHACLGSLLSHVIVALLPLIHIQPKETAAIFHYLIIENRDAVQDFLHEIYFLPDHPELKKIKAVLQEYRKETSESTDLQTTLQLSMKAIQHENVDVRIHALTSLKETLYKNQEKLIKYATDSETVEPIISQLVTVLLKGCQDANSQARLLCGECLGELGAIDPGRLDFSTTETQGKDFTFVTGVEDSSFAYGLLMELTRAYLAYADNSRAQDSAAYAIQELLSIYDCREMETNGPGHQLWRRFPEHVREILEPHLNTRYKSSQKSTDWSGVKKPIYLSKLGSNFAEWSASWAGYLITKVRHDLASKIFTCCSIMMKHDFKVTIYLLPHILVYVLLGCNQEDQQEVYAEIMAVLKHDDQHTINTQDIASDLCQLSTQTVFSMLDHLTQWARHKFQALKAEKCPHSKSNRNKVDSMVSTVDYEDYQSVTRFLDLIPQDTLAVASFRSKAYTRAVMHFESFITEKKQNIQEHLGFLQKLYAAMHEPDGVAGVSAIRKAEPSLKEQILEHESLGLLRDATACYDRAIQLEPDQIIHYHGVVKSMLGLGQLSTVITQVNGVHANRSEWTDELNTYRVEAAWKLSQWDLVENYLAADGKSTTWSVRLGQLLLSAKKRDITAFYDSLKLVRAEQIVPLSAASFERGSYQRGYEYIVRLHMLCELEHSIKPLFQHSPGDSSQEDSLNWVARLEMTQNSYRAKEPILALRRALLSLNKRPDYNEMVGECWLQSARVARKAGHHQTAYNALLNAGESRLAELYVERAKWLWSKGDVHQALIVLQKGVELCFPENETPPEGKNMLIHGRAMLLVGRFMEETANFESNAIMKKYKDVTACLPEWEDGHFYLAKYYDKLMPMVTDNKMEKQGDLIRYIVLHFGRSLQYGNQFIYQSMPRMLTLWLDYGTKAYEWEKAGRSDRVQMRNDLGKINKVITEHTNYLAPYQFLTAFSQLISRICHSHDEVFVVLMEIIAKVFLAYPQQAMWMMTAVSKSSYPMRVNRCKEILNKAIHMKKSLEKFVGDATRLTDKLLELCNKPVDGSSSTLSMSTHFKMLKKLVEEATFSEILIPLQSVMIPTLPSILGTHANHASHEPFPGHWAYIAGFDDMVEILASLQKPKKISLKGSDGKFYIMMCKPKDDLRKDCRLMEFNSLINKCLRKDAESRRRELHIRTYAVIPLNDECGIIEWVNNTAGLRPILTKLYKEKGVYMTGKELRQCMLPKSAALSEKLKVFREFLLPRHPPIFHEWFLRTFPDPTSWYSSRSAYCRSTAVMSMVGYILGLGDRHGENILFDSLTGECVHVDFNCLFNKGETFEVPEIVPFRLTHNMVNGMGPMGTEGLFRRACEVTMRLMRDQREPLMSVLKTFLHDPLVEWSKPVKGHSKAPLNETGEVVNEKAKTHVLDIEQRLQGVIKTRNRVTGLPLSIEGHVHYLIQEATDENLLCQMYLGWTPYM
T1 sequence (Q8WXE1 whole entry partner): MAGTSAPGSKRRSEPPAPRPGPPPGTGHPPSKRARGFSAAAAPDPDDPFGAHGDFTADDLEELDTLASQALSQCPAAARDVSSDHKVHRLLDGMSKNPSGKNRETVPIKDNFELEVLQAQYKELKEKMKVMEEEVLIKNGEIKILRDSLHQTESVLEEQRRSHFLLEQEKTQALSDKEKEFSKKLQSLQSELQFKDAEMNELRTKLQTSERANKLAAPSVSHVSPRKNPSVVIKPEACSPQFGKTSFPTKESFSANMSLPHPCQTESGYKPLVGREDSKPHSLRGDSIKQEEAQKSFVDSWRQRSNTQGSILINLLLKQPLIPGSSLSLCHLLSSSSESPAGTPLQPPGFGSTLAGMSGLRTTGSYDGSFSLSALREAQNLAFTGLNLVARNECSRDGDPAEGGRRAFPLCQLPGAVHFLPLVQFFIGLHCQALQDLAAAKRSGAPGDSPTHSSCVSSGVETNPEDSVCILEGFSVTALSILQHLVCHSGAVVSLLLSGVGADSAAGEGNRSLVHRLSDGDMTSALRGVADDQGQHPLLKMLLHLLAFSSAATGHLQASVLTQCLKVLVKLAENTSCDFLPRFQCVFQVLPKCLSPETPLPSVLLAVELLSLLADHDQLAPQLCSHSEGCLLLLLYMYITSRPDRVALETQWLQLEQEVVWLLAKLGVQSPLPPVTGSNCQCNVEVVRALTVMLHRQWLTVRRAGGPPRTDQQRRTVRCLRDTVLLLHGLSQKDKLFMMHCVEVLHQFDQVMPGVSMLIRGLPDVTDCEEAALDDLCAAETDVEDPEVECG
Method: (§1) Supplement 12953_2017_125_MOESM1_ESM.zip/MS_Supp Info.xlsx, sheet "KAM" | column: 10 uM KAM; 1 uM KAM; 0.1 uM KAM; 0.01 uM KAM; 0.001 uM KAM; RB50

ULK2 = biological target: T2, ULK2 (Homo sapiens, UniProt Q8IYT8);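 on 0.001 uM KAM: median log10 fold change of treatment over DMSO control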;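 on 0.01 uM KAM: median log10 fold change of treatment over DMSO control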;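 on 0.1 uM KAM: median log10 fold change of treatment over DMSO control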;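 on 1 uM KAM: median log10 fold change of treatment over DMSO control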;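 on 10 uM KAM: median log10 fold change of treatment over DMSO control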
T2 construct: endogenous in cells; host or cells: K562
T2 sequence (Q8IYT8 1-1036): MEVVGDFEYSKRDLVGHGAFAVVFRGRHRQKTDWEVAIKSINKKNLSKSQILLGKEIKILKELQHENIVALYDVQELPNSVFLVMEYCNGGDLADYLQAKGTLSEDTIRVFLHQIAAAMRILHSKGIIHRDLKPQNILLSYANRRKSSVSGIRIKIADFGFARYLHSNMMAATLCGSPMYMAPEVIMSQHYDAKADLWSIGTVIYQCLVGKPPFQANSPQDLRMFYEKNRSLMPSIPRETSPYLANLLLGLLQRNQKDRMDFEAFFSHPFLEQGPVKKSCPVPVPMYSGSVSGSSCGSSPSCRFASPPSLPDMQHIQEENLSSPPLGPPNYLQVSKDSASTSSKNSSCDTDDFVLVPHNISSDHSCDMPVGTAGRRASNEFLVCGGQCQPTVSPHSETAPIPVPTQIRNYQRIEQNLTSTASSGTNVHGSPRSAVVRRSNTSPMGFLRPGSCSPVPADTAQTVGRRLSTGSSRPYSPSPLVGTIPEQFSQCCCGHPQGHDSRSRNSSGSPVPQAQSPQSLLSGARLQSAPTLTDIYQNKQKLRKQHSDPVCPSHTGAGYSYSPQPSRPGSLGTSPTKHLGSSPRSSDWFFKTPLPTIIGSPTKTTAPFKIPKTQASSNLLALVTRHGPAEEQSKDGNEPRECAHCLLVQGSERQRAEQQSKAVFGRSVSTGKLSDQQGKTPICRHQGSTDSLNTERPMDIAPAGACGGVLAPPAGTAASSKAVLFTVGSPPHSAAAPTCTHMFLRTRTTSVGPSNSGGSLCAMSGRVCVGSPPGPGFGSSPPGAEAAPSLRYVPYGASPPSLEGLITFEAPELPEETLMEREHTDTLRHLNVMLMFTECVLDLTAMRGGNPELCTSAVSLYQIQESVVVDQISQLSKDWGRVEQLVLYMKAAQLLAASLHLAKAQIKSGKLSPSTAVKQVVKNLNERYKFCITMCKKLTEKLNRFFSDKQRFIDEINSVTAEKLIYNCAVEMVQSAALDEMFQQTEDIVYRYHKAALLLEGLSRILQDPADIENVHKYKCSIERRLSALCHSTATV
Method: as §1

CAMK4 = biological target: T3, CAMK4 (Homo sapiens, UniProt Q16566);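 on 0.001 uM KAM: median log10 fold change of treatment over DMSO control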;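 on 0.01 uM KAM: median log10 fold change of treatment over DMSO control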;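 on 0.1 uM KAM: median log10 fold change of treatment over DMSO control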;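 on 1 uM KAM: median log10 fold change of treatment over DMSO control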;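 on 10 uM KAM: median log10 fold change of treatment over DMSO control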
T3 construct: endogenous in cells; host or cells: K562
T3 sequence (Q16566 1-473): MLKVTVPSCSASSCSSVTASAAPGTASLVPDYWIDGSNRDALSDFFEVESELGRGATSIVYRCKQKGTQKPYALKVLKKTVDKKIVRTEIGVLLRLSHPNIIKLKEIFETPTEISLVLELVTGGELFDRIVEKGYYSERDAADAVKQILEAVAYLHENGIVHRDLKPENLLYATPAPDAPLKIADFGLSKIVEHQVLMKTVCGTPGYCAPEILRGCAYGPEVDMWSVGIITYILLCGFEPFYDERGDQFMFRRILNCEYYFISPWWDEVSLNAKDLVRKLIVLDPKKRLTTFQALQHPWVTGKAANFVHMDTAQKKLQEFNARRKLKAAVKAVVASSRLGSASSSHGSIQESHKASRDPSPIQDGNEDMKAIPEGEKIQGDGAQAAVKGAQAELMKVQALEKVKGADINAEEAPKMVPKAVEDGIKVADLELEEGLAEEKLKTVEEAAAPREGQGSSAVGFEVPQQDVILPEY
Method: as §1

PLK4 = biological target: T4, PLK4 (Homo sapiens, UniProt O00444)
T4 construct: endogenous in cells; host or cells: K562
T4 sequence (O00444 1-970): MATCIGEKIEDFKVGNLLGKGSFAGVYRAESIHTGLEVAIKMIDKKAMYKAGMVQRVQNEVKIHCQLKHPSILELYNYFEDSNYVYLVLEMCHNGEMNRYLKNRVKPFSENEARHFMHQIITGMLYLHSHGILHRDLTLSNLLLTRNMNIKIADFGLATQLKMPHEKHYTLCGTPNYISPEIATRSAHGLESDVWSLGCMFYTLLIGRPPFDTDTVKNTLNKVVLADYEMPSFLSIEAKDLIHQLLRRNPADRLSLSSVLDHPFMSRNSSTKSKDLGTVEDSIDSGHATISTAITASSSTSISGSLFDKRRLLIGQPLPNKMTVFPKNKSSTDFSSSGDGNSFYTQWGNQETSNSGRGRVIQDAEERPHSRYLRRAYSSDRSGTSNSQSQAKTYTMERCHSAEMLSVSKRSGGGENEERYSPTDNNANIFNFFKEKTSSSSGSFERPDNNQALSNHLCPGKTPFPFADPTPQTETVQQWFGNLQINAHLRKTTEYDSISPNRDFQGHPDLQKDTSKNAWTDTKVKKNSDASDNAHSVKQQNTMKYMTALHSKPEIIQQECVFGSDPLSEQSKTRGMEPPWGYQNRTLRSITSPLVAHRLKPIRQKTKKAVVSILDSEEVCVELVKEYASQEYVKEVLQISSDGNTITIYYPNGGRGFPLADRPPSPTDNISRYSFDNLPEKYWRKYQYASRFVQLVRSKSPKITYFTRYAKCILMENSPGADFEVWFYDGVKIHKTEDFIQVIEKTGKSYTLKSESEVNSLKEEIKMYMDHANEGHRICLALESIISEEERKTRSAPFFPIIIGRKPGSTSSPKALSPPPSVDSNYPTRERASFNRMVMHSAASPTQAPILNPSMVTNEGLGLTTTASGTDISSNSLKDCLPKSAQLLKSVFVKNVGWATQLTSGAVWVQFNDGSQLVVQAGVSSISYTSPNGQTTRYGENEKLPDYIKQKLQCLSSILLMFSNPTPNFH
Method: as §1

[1] = KAM 0.001-10 uM, read-out: RB50 (the source's name)

N#CCc1ccc(Nc2nc(NCCCN)cc(Nc3cc(C4CC4)[nH]n3)n2)cc1 [KAM]
IC50 (ATR; [1]): > 10 µM
0.001 uM KAM (ATR; relative to 0 uM KAM = 0): -0.04695
0.01 uM KAM (ATR; relative to 0 uM KAM = 0): 0.002576
0.1 uM KAM (ATR; relative to 0 uM KAM = 0): -0.08926
1 uM KAM (ATR; relative to 0 uM KAM = 0): -0.01418
10 uM KAM (ATR; relative to 0 uM KAM = 0): 0.03196
IC50 (ULK2; [1]): > 10 µM
0.001 uM KAM (ULK2; relative to 0 uM KAM = 0): -0.004094
0.01 uM KAM (ULK2; relative to 0 uM KAM = 0): -0.0009308
0.1 uM KAM (ULK2; relative to 0 uM KAM = 0): 0.03838
1 uM KAM (ULK2; relative to 0 uM KAM = 0): 0.1564
10 uM KAM (ULK2; relative to 0 uM KAM = 0): 0.04645
IC50 (CAMK4; [1]): > 10 µM
0.001 uM KAM (CAMK4; relative to 0 uM KAM = 0): -0.0432
0.01 uM KAM (CAMK4; relative to 0 uM KAM = 0): 0.002565
0.1 uM KAM (CAMK4; relative to 0 uM KAM = 0): 0.008768
1 uM KAM (CAMK4; relative to 0 uM KAM = 0): 0.00582
10 uM KAM (CAMK4; relative to 0 uM KAM = 0): -0.03437
median Log10 fold change (PLK4; 0.001 uM KAM): -0.0157
median Log10 fold change (PLK4; 0.01 uM KAM): 0.006981
median Log10 fold change (PLK4; 0.1 uM KAM): -0.1724
median Log10 fold change (PLK4; 1 uM KAM): -0.3044
median Log10 fold change (PLK4; 10 uM KAM): -0.3267
IC50 (PLK4; read-out: RB50 (the source's name)): 1.4 µM

Source: publication PMC5513037, “Examining the influence of specificity ligands and ATP-competitive ligands on the overall effectiveness of bivalent kinase inhibitors” (Proteome Science, 2017)
